In patent US20030215899A1, “Reversible oxidation of protein tyrosine phosphatases” (CEPTYR, Inc., priority 2002, published 2003):
“Also recorded” adds a separate entry of the source.

Experiments:
PTPs in Rat-1 cells = assay: modified in-gel PTP activity assay of Rat-1 cell lysates; assay type: cell-based
Text: To determine whether ROS stimulated intracellular tyrosine phosphorylation through the oxidation and inhibition of cellular PTPs, a modified in-gel PTP activity assay was devised, as follows: As substrate, poly (4:1) Glu-Tyr (Sigma) was labeled with [γ-^32P]-ATP using the GST-FER fusion PTK, as described previously (Shen et al., 1998 J. Biol. Chem. 273:6474-81). The labeled substrates were used within three weeks to limit the variation of its specific activity from experiment to experiment. The lysis buffer (25 mM CH3COONa, 1% NP-40, 150 mM NaCl, 10% glycerol, pH 5.5) was degassed at 4° C. for overnight, before catalase and superoxide dismutase (both 100 μg/ml), protease inhibitors and 10 mM iodoacetic acid (IAA) were added. Following stimulation, cells were lysed under anaerobic conditions in an argon chamber. Lysates (25 μg) were processed as described herein and an “in-gel” phosphatase assay (Burridge and Nelson, 1995) was conducted using SDS-PAGE gels containing a radioactively-labeled substrate (1.5×10^6 cpm/20 ml gel solution, approximately 2 μM p-Tyr).
Cells were triggered with the appropriate stimulus and harvested under anaerobic conditions in lysis buffer containing IAA. Those PTPs that had not encountered ROS in the cell became irreversibly inactivated by alkylation of their active site Cys with IAA. However, in contrast, any PTPs in which the active site Cys had been oxidized in response to the stimulus were resistant to alkylation. For the “in-gel” phosphatase assay, a 10% SDS-PAGE gel was cast containing a radioactively-labeled substrate. An aliquot of cell lysate was subjected to SDS-PAGE and proteins in the gel were sequentially denatured, then renatured in the presence of reducing reagents. […] The reaction was then terminated by fixing, staining and destaining the gel. Finally the gel was dried and exposed to film. The presence of a PTP was visualized by substrate dephosphorylation, as the appearance of a clear, white area on the black background of labeled substrate.

[1] = tested on: PTPs in peripheral blood mononuclear lymphocytes; assay: in-gel protection assay, PHA-stimulated peripheral blood mononuclear lymphocytes; assay type: cell-based, human; details: 50 mM IAA, cells without ASBA-1 pretreatment
Procedure: Peripheral blood mononuclear lymphocytes were purified from human blood. In 5 ml media (RPMI), 2×10^7 cells were incubated in 50 μM ASBA-1 (PTP specific inhibitor) for 90 minutes and stimulated with phytohemagglutinin (PHA, 0.5 μL of 5.0 mg/ml stock) for 2, 10 or 30 min. […] Desalted proteins were separated on a 2 ml Source Q anion exchange column (Amersham Pharmacia Biotech) using a 0-1M NaCl gradient in 20 mM Tris, pH 7.5; 1 mM EDTA; 0.05% Triton X-100.

SHP-2 (E76A mutant) = SHP-2 (E76A mutant) (Homo sapiens, UniProt Q06124, E76A); assay type: biochemical
TC45 (45 kDa PTP) = target: T1, TC45 (45 kDa PTP) (Rattus norvegicus, UniProt P35233); assay: modified in-gel PTP assay (RCML substrate), insulin stimulated Rat-1 cells; assay type: cell-based; details: 50 nM insulin, serum-starved Rat-1 cells
T1 construct: endogenous in cells; host or cells: Rat-1 fibroblasts
T1 sequence (P35233 1-382 isoform P35233-2): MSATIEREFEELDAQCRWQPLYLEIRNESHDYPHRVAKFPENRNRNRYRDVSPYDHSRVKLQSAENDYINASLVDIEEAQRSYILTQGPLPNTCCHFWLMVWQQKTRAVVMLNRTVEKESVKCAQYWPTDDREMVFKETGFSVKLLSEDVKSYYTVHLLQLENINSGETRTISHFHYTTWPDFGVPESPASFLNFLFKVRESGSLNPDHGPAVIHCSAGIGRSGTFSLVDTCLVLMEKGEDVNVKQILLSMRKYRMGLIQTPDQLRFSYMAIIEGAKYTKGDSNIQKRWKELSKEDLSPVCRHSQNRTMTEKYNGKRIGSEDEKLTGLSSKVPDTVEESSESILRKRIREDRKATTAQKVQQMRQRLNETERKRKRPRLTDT
Procedure: (§1) The effect of insulin-induced H2O2 production on PTP oxidation was examined using the modified in-gel PTP assay essentially as described in Example 1. Serum-starved Rat-1 cells were exposed to 50 nM insulin for 2, 5, 10, 20, and 30 minutes. Lysates were prepared under anaerobic conditions in the presence of 10 mM IAA and then subjected to in-gel PTP assays. The substrate incorporated into the SDS-PAGE gels for these assays was ^32P-labeled reduced, carboxamidomethylated and maleylated lysozyme (RCML) (1.5×10^6 cpm/20 ml gel solution, ˜2 μM p-Tyr).
(§2) The oxidized 45 kDa and 50 kDa PTPs were identified as TC-45 and PTP1B, respectively, by immunodepletion and immunoblotting. Total cell lysates were prepared as described in Example 1. Lysate (400 μg) was incubated with normal IgG, anti-PTP1B antibody (FG6, LaMontagne et al., Mol. Cell. Biol. 18:2965-75 (1998)), or anti-TC45 antibody (1910H, Lorenzen et al., J. Cell. Biol. 131:631-43 (1995)) coupled to protein G-Sepharose ^T beads (Amersham Biosciences). After the immunoprecipitation step, the immune complexes and supernatants were collected and subjected to in-gel PTP assays. Immunodepletion of the 50 kDa PTP from the lysate with anti-PTP1B antibody is shown in FIG. 11B, and immunodepletion of the 45 kDa PTP with antibody specific for TC45 is shown in FIG. 11C. […]

PTP1B (50 kDa PTP) = target: T2, PTP1B (50 kDa PTP) (Rattus norvegicus, UniProt P20417); assay: as above; assay type: cell-based; details: 50 nM insulin, serum-starved Rat-1 cells
T2 construct: endogenous in cells; host or cells: Rat-1 fibroblasts
T2 sequence (P20417 1-432): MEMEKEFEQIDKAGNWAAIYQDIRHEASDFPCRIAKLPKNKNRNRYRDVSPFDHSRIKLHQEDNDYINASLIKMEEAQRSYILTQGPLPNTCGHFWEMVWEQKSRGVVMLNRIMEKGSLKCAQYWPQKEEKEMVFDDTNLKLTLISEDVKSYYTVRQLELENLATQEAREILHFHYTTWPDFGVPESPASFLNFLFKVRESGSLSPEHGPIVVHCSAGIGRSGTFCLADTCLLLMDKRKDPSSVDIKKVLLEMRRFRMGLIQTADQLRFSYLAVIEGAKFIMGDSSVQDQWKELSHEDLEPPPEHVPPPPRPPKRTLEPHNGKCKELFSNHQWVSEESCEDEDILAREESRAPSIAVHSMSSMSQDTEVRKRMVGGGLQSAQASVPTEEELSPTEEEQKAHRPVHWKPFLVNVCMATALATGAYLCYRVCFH
Procedure: as §1, §2

| Compound | inactivation of PTPs in lysate by alkylation (PTPs in Rat-1 cells) | inactivation of PTPs [1] | inactivation of purified SHP-2 (SHP-2 (E76A mutant)) | oxidation of 45 kDa PTP (TC45) (TC45 (45 kDa PTP)) | oxidation of 50 kDa PTP (PTP1B) (PTP1B (50 kDa PTP)) |
| --- | --- | --- | --- | --- | --- |
| O=C(O)CI [IAA, iodoacetic acid] | effectively inactivated PTPs | inactivated by IAA | inactivated by IAA | – | – |
| insulin: polypeptide hormone used as stimulus | – | – | – | transiently oxidized; also recorded: induced the transient oxidation | transiently oxidized; also recorded: induced the transient oxidation |
